Measurements reported in PubChem BioAssay AID248 (DTP/NCI, 2004).
Values joined by “and” are separate entries in the source; they are usually repeats but may differ in a detail not shown here. Equal entries are not always repeated. Inconclusive results and toxic doses are left out. Cut-off read from the data, not from the text of the source: active = T/C of 150% or more; inactive = T/C below 125%.

System: L1210 leukemia ip in BDF1 mice, survival T/C
Assay: NCI In Vivo Anticancer Drug Screen. Data for tumor model L1210 Leukemia (intraperitoneal) in B6D2F1 (BDF1) mice
Conditions: endpoint: mean survival time, higher = longer survival
Procedure, shortened: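 Transplantable tumor model; survival measured in treated vs vehicle control mice. Value = treated/control.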

[1] = dose: 100.0 mg/kg/injection, schedule: Q01DX001 (ip), vehicle: Klucel (hydroxypropylcellulose) (HPC)
[2] = dose: 200.0 mg/kg/injection, schedule: Q01DX001 (ip), vehicle: Klucel (hydroxypropylcellulose) (HPC)
[3] = dose: 400.0 mg/kg/injection, schedule: Q01DX001 (ip), vehicle: Klucel (hydroxypropylcellulose) (HPC)
[4] = dose: 100.0 mg/kg/injection, schedule: Q01DX009 (ip), vehicle: saline
[5] = dose: 100.0 mg/kg/injection, schedule: Q04DX003 (ip), vehicle: saline
[6] = dose: 200.0 mg/kg/injection, schedule: Q01DX009 (ip), vehicle: saline
[7] = dose: 200.0 mg/kg/injection, schedule: Q04DX003 (ip), vehicle: saline
[8] = dose: 400.0 mg/kg/injection, schedule: Q04DX003 (ip), vehicle: saline
[9] = dose: 100.0 mg/kg/injection, schedule: Q04DX003 (ip), vehicle: Klucel (hydroxypropylcellulose) (HPC)
[10] = dose: 200.0 mg/kg/injection, schedule: Q04DX003 (ip), vehicle: Klucel (hydroxypropylcellulose) (HPC)
[11] = dose: 400.0 mg/kg/injection, schedule: Q04DX003 (ip), vehicle: Klucel (hydroxypropylcellulose) (HPC)
[12] = dose: 100.0 mg/kg/injection, schedule: Q01DX001 (ip), vehicle: saline
[13] = dose: 200.0 mg/kg/injection, schedule: Q01DX001 (ip), vehicle: saline
[14] = dose: 100.0 mg/kg/injection, schedule: Q01DX009 (ip), vehicle: Klucel (hydroxypropylcellulose) (HPC)
[15] = dose: 200.0 mg/kg/injection, schedule: Q01DX009 (ip), vehicle: Klucel (hydroxypropylcellulose) (HPC)
[16] = dose: 400.0 mg/kg/injection, schedule: Q01DX009 (ip), vehicle: Klucel (hydroxypropylcellulose) (HPC)
[17] = dose: 50.0 mg/kg/injection, schedule: Q04DX003 (ip), vehicle: saline with Tween-80
[18] = dose: 100.0 mg/kg/injection, schedule: Q04DX003 (ip), vehicle: saline with Tween-80
[19] = dose: 200.0 mg/kg/injection, schedule: Q04DX003 (ip), vehicle: saline with Tween-80
[20] = dose: 100.0 mg/kg/injection, schedule: Q04DX002 (ip), vehicle: saline with Tween-80
[21] = dose: 200.0 mg/kg/injection, schedule: Q01DX009 (ip), vehicle: saline with Tween-80
[22] = dose: 200.0 mg/kg/injection, schedule: Q04DX002 (ip), vehicle: saline with Tween-80
[23] = dose: 400.0 mg/kg/injection, schedule: Q04DX002 (ip), vehicle: saline with Tween-80
[24] = dose: 50.0 mg/kg/injection, schedule: Q01DX001 (ip), vehicle: carboxymethylcellulose (CMC)

Measured: T/C

CCOC(=S)c1ccc(S(=O)(=O)Nc2ccc(OCC)cc2)cc1
inactive: [1] 95 % of control | [2] 98 % of control | [3] 95 % of control

CC(C)(CCCl)N(Cc1ccccc1)Cc1ccccc1
inactive: [4] 93 % of control | [5] 99 % of control | [6] 90 % of control | [7] 95 % of control | [8] 89 % of control

COC(=O)c1cc(OC)nc(OC)c1
inactive: [9] 102 % of control | [10] 110 % of control | [11] 96 % of control

O=[N+]([O-])c1[nH]cnc1S(=O)(=O)Cl
inactive: [12] 94 % of control | [13] 94 % of control | dose: 400.0 mg/kg/injection, schedule: Q01DX001 (ip), vehicle: saline 97 % of control

CCN(CC)CCCC(C)Nc1nnc2c(=O)n(C)c(=O)n(C)c2n1 (stereo not given)
inactive: dose: 75.0 mg/kg/injection, schedule: Q04DX003 (ip), vehicle: saline 89 % of control | dose: 150.0 mg/kg/injection, schedule: Q04DX003 (ip), vehicle: saline 90 % of control | dose: 300.0 mg/kg/injection, schedule: Q04DX003 (ip), vehicle: saline 87 % of control

CCCCCCC(=O)/C=C/C=C/c1ccccc1
inactive: [14] 97 % of control | [9] 98 % of control | [15] 91 % of control | [10] 98 % of control | [16] 100 % of control | [11] 94 % of control

CC(NC(=O)NCCCl)C1CC1 (stereo not given)
inactive: [1] 106 % of control | [9] 97 % of control | [2] 103 % of control | [10] 100 % of control | [3] 103 % of control | [11] 90 % of control

CC(C)(C)C(N)=O
inactive: [14] 92 % of control | dose: 100.0 mg/kg/injection, schedule: Q04DX003 (ip), vehicle: other 94 % of control | [15] 90 % of control | dose: 200.0 mg/kg/injection, schedule: Q04DX003 (ip), vehicle: other 98 % of control | [16] 95 % of control | dose: 400.0 mg/kg/injection, schedule: Q04DX003 (ip), vehicle: other 98 % of control

[Cl][Pt+2][Cl].[NH-]C(CCCN)C(=O)O.[NH-]C(CCCN)C(=O)O (stereo not given)
inactive: [17] 103 % of control | [18] 104 % of control and 115 % of control | [19] 97 % of control and 102 % of control

O=C(O)c1ccc(N=Cc2cccc([N+](=O)[O-])c2)cc1
inactive: dose: 100.0 mg/kg/injection, schedule: Q01DX001 (ip), vehicle: saline with Tween-80 106 % of control | dose: 100.0 mg/kg/injection, schedule: Q01DX009 (ip), vehicle: saline with Tween-80 100 % of control and 91 % of control | [20] 97 % of control and 91 % of control | dose: 200.0 mg/kg/injection, schedule: Q01DX001 (ip), vehicle: saline with Tween-80 92 % of control | [21] 98 % of control and 122 % of control | [22] 93 % of control and 91 % of control | dose: 400.0 mg/kg/injection, schedule: Q01DX001 (ip), vehicle: saline with Tween-80 95 % of control | dose: 400.0 mg/kg/injection, schedule: Q01DX009 (ip), vehicle: saline with Tween-80 102 % of control and 88 % of control | [23] 93 % of control and 88 % of control

CC(=O)c1cccc(OCC(O)CN(C(C)C)C(C)C)c1 (stereo not given)
inactive: [4] 98 % of control | [6] 98 % of control

O=c1cc(NC(c2ccccc2)c2ccccc2)[nH]c(=O)[nH]1
inactive: [9] 97 % of control | [10] 97 % of control | [11] 98 % of control

CC1CC(C)(C)OC(C)(C)O1 (stereo not given)
inactive: dose: 50.0 mg/kg/injection, schedule: Q01DX009 (ip), vehicle: acetone 90 % of control and 95 % of control | dose: 100.0 mg/kg/injection, schedule: Q01DX009 (ip), vehicle: acetone 97 % of control and 94 % of control | [20] 101 % of control | dose: 100.0 mg/kg/injection, schedule: Q04DX003 (ip), vehicle: acetone 104 % of control and 109 % of control | dose: 200.0 mg/kg/injection, schedule: Q01DX009 (ip), vehicle: acetone 94 % of control and 95 % of control | [22] 93 % of control | dose: 200.0 mg/kg/injection, schedule: Q04DX003 (ip), vehicle: acetone 95 % of control and 104 % of control | [23] 104 % of control | dose: 400.0 mg/kg/injection, schedule: Q04DX003 (ip), vehicle: acetone 94 % of control and 95 % of control

COc1cc(/C=C(/C)[N+](=O)[O-])c([N+](=O)[O-])cc1OC
inactive: [12] 98 % of control | [13] 90 % of control

Cc1ncc(CC#N)c2c1OC(C)(C)OC2
inactive: dose: 12.5 mg/kg/injection, schedule: Q01DX001 (ip), vehicle: carboxymethylcellulose (CMC) 107 % of control | dose: 25.0 mg/kg/injection, schedule: Q01DX001 (ip), vehicle: carboxymethylcellulose (CMC) 104 % of control | [24] 101 % of control

CC[NH-].CC[NH-].[I][Pt+2][I]
inactive: dose: 12.5 mg/kg/injection, schedule: Q04DX003 (ip), vehicle: saline 106 % of control | dose: 25.0 mg/kg/injection, schedule: Q01DX009 (ip), vehicle: saline 109 % of control | dose: 25.0 mg/kg/injection, schedule: Q04DX003 (ip), vehicle: saline 101 % of control | dose: 50.0 mg/kg/injection, schedule: Q01DX009 (ip), vehicle: saline 105 % of control | dose: 50.0 mg/kg/injection, schedule: Q04DX003 (ip), vehicle: saline 101 % of control | [5] 110 % of control

CCC(O)(C1=NC(C)(C)CO1)c1ccncc1Br (stereo not given)
inactive: [1] 100 % of control | [2] 94 % of control | [3] 97 % of control

CN(C)C(=S)N(C)C
inactive: [24] 104 % of control | dose: 100.0 mg/kg/injection, schedule: Q01DX001 (ip), vehicle: carboxymethylcellulose (CMC) 104 % of control | [4] 90 % of control | [5] 107 % of control | dose: 200.0 mg/kg/injection, schedule: Q01DX001 (ip), vehicle: carboxymethylcellulose (CMC) 101 % of control | [6] 96 % of control | [7] 107 % of control | dose: 400.0 mg/kg/injection, schedule: Q01DX001 (ip), vehicle: carboxymethylcellulose (CMC) 98 % of control | dose: 400.0 mg/kg/injection, schedule: Q01DX009 (ip), vehicle: saline 98 % of control | [8] 104 % of control

OC1CC[N-]CC1.OC1CC[N-]CC1.[Cl][Pt+2]([Cl])([Cl])[Cl]
inactive: dose: 12.5 mg/kg/injection, schedule: Q01DX009 (ip), vehicle: saline with Tween-80 100 % of control | dose: 25.0 mg/kg/injection, schedule: Q01DX009 (ip), vehicle: saline with Tween-80 103 % of control | dose: 25.0 mg/kg/injection, schedule: Q04DX003 (ip), vehicle: saline with Tween-80 100 % of control | dose: 50.0 mg/kg/injection, schedule: Q01DX009 (ip), vehicle: saline with Tween-80 92 % of control | [17] 107 % of control | [18] 112 % of control and 119 % of control

CC(=O)N=C1C=C(NC(C)=O)C(=O)c2ncccc21
inactive: [17] 96 % of control | [18] 96 % of control

CCCCCCCc1nc(/N=N/N(C)C)c(C(N)=O)[nH]1
inactive: [18] 101 % of control | [21] 91 % of control | [19] 98 % of control | dose: 400.0 mg/kg/injection, schedule: Q04DX003 (ip), vehicle: saline with Tween-80 110 % of control

COc1ccc(N=C2C(=O)Nc3ccc(Br)cc32)cc1
inactive: dose: 100.0 mg/kg/injection, schedule: Q04DX002 (ip), vehicle: Klucel (hydroxypropylcellulose) (HPC) 107 % of control | dose: 200.0 mg/kg/injection, schedule: Q04DX002 (ip), vehicle: Klucel (hydroxypropylcellulose) (HPC) 96 % of control | dose: 400.0 mg/kg/injection, schedule: Q04DX002 (ip), vehicle: Klucel (hydroxypropylcellulose) (HPC) 107 % of control
